Data from patent publication US12715915B2, “Gout flare prevention methods using IL-1β blockers” (priority 2022, dated 2026).
Entries after “also recorded” stand apart in the source; their conditions may differ. Read-outs that look alike come from different tables or passages of the source.

Tests used:
[1] = tested on: adult uncontrolled gout patients; assay: MIRROR-C: open-label trial of canakinumab prophylaxis to prevent gout flares when initiating pegloticase+MTX; assay type: in vivo, human
Excerpt: 86. Pegloticase plus methotrexate (approved by FDA in July 2022) is effective at reducing signs/symptoms of uncontrolled gout. In the pivotal trial (MIRROR RCT) the most common adverse event was gout flares which occurred in 54% of patients at month 1 on combination pegloticase and methotrexate. The purpose of this study is to determine if canakinumab is effective for the prevention of gout flares in subjects scheduled to begin KRYSTEXXA® (KRY) (pegloticase) infusions in combination with methotrexate. The most common adverse event that occurs in patients being treated with KRY and methotrexate are gout flares which occurred in 54% of patients at month 1 in the MIRROR RCT. Herein we use canakinumab pretreatment (without corticosteroids, NSAIDs, or colchicine) to reduce the number of gout flares.
87 Canakinumab is the drug that is tested herein. It is currently approved by the FDA for the treatment of periodic fever syndromes and active systemic juvenile idiopathic arthritis (SJIA). However, Canakinumab is considered to be experimental in this study. Subjects scheduled (by their treating provider) to receive pegloticase (with methotrexate) receive a single 150 mg injection of subcutaneous canakinumab one week prior to the first scheduled pegloticase infusion. The combination of the drugs is experimental. As shown herein,
88. Subjects scheduled (by their treating provider) to receive pegloticase (with methotrexate) receive a single 150 mg injection of subcutaneous canakinumab one week prior to the first scheduled pegloticase infusion. At each infusion, subjects are assessed for gout flares. Canakinumab are provided by the study to subjects without charge. Pegloticase, methotrexate, and other medications are obtained through standard means (patient insurance, patient assistance, etc.) as ordered by treating provider. […] It is assumed that mobilization of gout crystals at the initiation of therapy results in gout flares through the IL-1 inflammasome pathway. A goal of prophylaxis is to reduce the number of flares with initiation. […]
89. […] On the day of KRYSTEXXA® administration (i.e., Day 0), the blood pressure, respiratory rate, temperature, and heart rate of patients are measured and patients receive a first administration of KRYSTEXXA® delivered as an intravenous (i.v.) infusion. Every two weeks thereafter during the study (i.e., Day 14, Day 28, Day 42, Day […], Day 98, Day 112, Day 126, Day 140, Day 154, Day 168; also called Week 2, Week 4, Week 6, Week 8, Week 10, Week 12, Week 14, Week 16, Week 18, Week 20, Week 22, Week 24) the blood pressure, respiratory rate, temperature, and heart rate of patients are measured and patients report any gout flares. […]

[2] = tested on: gout patients initiating allopurinol; conditions: cited from earlier work; for risk of gout flares during allopurinol initiation: in vivo
[3] = biological target: human IL1β (Homo sapiens, UniProt P01584); conditions: blocks interaction with IL-1 receptors; cited from earlier work
[4] = biological target: T1, IL-1α (Homo sapiens, UniProt P01583); conditions: cited from earlier work
T1 sequence (P01583 113-271): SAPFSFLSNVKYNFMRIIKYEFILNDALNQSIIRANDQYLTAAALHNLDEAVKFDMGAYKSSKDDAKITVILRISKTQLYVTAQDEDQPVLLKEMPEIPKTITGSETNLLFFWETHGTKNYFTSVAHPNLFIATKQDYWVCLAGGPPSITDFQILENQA

[5] = biological target: IL-1 receptor antagonist (IL-1ra) (Homo sapiens, UniProt P18510); conditions: cited from earlier work
IL-1 receptor antagonist (IL-1ra), sequence (P18510 26-177): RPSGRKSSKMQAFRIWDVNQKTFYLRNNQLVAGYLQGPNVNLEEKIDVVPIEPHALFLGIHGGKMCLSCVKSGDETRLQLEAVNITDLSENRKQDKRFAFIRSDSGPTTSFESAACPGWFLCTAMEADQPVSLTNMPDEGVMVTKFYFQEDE

With canakinumab the “time to resolution of active gout flares after administration” value ([1]; canakinumab 150 mg s.c.) was ≤ 48 h, the “treated patients in whom gout flares were prevented” value ([1]; canakinumab prophylaxis without corticosteroids, initiation of pegloticase with methotrexate) was 100% and the “safety of canakinumab prophylaxis with pegloticase+MTX” value ([1]; single 150 mg dose, without CS) was “no new safety signals; also recorded: did not compromise efficacy or safety”. For the same substance, the “new gout flares after canakinumab prophylaxis” value ([1]; single 150 mg s.c. dose 7 days before first pegloticase infusion, no CS, NSAIDs or colchicine, assessed every 2 wks for 6 mos) was “No new gout flares; also recorded: prevented gout flares in all patients”, the “risk of gout flares during allopurinol initiation” value [2] was “reduces the risk of flares” and the “risk of gout flares during allopurinol initiation” value ([2]; listed as Canakinumab) was “can reduce subsequent flares”. For the same substance, the “prophylaxis against flares compared to colchicine” value ([2]; single dose ≥50 mg, initiating allopurinol) was “superior prophylaxis”, the “binding to human IL1β” value [3] was “binds to human IL1β and neutralizes its activity” and the “binding to IL-1α” value [4] was “does not bind”. The “binding to IL-1 receptor antagonist (IL-1ra)” value [5] was “does not bind”.
